Experimental data from US10005767B2, “Compositions and methods for inhibition of the JAK pathway” (Rigel Pharmaceuticals, Inc., priority 2009, dated 2018).
Where a name gives a salt, the structure may show the parent alone.

tested on: human primary T-cells, IL-2 stimulated proliferation (JAK-1 and JAK-3 dependent; reported as JAK3 activity); assay: Human primary T-cell proliferation stimulated by IL-2 (Example 3); assay type: cell-based; settings: Homo sapiens, T-cell, tested under conditions described in Example 3 (IL-2 stimulated human primary T-cell proliferation); read-out: ability to inhibit JAK3 activity, IC50 range (Table V)
Method in brief: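 Peripheral-blood human T-cells pre-activated via TCR/CD28, IL-2-starved overnight, then cultured 72 h at 37 °C with compound in Yssel's medium containing IL-2 (80 U/mL in cell suspension). Proliferation read as viable-cell ATP by CellTiter-Glo luminescence; reduction versus control taken as JAK pathway inhibition.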

| SMILES | IC50 |
| --- | --- |
| CCc1cccc(Nc2ncc(C)c(Nc3ccc4oc(=O)[nH]c4c3)n2)c1 [Compound I-503, 5-(2-(3-ethylphenylamino)-5-methylpyrimidin-4-ylamino)benzo[d]oxazol-2(3H)-one] | < 500 nM |
| COc1cc(Nc2ncc(C)c(Nc3ccc4oc(=O)[nH]c4c3)n2)cc(C(C)=O)c1 [Compound I-229, 5-(2-(3-acetyl-5-methoxyphenylamino)-5-methylpyrimidin-4-ylamino)benzo[d]oxazol-2(3H)-one] | < 500 nM |
| Cc1cnc(Nc2cccc(S(=O)(=O)C3CCCC3)c2)nc1Nc1ccc2oc(=O)[nH]c2c1 [Compound I-157, 5-[2-(3-Cyclopentanesulfonyl-phenylamino)-5-methyl-pyrimidin-4-ylamino]-3H-benzooxazol-2-one] | < 500 nM |
| COc1ccc(Nc2ncc(C)c(Nc3ccc4oc(=O)[nH]c4c3)n2)cc1C(F)F [Compound I-271, 5-(2-(3-(difluoromethyl)-4-methoxyphenylamino)-5-methylpyrimidin-4-ylamino)benzo[d]oxazol-2(3H)-one] | < 500 nM |
| Cc1cnc(Nc2c(C)cccc2F)nc1Nc1ccc2oc(=O)[nH]c2c1 [IV-62, 5-(2-(2-fluoro-6-methylphenylamino)-5-methylpyrimidin-4-ylamino)benzo[d]oxazol-2(3H)-one] | 500 to 5000 nM |
| CCc1ccccc1Nc1ncc(C)c(Nc2ccc3oc(=O)[nH]c3c2)n1 [Compound I-502, 5-(2-(2-ethylphenylamino)-5-methylpyrimidin-4-ylamino)benzo[d]oxazol-2(3H)-one] | 500 to 5000 nM |
| Cc1cnc(Nc2ccc3c(c2)[nH]c(=O)n3C)nc1Nc1ccc2oc(=O)[nH]c2c1 [IV-28, 5-(5-methyl-2-(1-methyl-2-oxo-2,3-dihydro-1H-benzo[d]imidazol-5-ylamino)pyrimidin-4-ylamino)benzo[d]oxazol-2(3H)-one] | < 500 nM |
| CSc1ccc(Nc2ncc(C)c(Nc3ccc4oc(=O)[nH]c4c3)n2)cc1C(F)(F)F [Compound I-155, 5-[5-Methyl-2-(4-methylsulfanyl-3-trifluoromethyl-phenylamino)-pyrimidin-4-ylamino]-3H-benzooxazol-2-one] | < 500 nM |
| Cc1cnc(Nc2ccc(OC(F)F)c(C(F)F)c2)nc1Nc1ccc2oc(=O)[nH]c2c1 [Compound I-442, 5-(2-(4-(difluoromethoxy)-3-(difluoromethyl)phenylamino)-5-methylpyrimidin-4-ylamino)benzo[d]oxazol-2(3H)-one formate salt] | < 500 nM |
| Cc1cnc(Nc2ccc(C(C)C)cc2)nc1Nc1ccc2oc(=O)[nH]c2c1 [Compound I-419, 5-(2-(4-isopropylphenylamino)-5-methylpyrimidin-4-ylamino)benzo[d]oxazol-2(3H)-one] | < 500 nM |
| Cc1cnc(Nc2ccc3c(c2)OC(C)(C)C(=O)N3)nc1Nc1ccc2oc(=O)[nH]c2c1 [IV-50, N2-[2,2-dimethyl-2H-1,4-benzoxazin-3(4H)-one-7-yl]-5-methyl-N4-(2-oxo-2,3-dihydro-1,3-benzoxazol-5-yl)-2,4-pyrimidinediamine] | < 500 nM |
| Cc1cnc(Nc2ccc(C(=O)NC3CC3)c(C(F)(F)F)c2)nc1Nc1ccc2oc(=O)[nH]c2c1 [Compound I-223, N-cyclopropyl-4-(5-methyl-4-(2-oxo-2,3-dihydrobenzo[d]oxazol-5-ylamino)pyrimidin-2-ylamino)-2-(trifluoromethyl)benzamide] | < 500 nM |
| Cc1cnc(Nc2ccccc2F)nc1Nc1ccc2oc(=O)[nH]c2c1 [Compound I-468, 5-[2-(2-Fluoro-phenylamino)-5-methyl-pyrimidin-4-ylamino]-3H-benzooxazol-2-one] | < 500 nM |
| CCN(CC)C1CCN(C(C)c2ccc(Nc3ncc(C)c(Nc4ccc5oc(=O)[nH]c5c4)n3)cc2)C1 (stereo not drawn) [Compound I-205, 5-(2-(4-(1-(3-(diethylamino)pyrrolidin-1-yl)ethyl)phenylamino)-5-methylpyrimidin-4-ylamino)benzo[d]oxazol-2(3H)-one] | < 500 nM |
| Cc1cnc(Nc2cnc(N3CC4CCC(C3)N4C(=O)C(F)(F)F)c(C)c2)nc1Nc1ccc2oc(=O)[nH]c2c1 [II-63, 5-(5-methyl-2-(5-methyl-6-(8-(2,2,2-trifluoroacetyl)-3,8-diaza-bicyclo[3.2.1]octan-3-yl)pyridin-3-ylamino)pyrimidin-4-ylamino)benzo[d]oxazol-2(3H)-one] | < 500 nM |
| Cc1cnc(Nc2cnc(C3CC4CCC(C3)N4C(=O)C(F)(F)F)c(C)c2)nc1Nc1ccc2oc(=O)[nH]c2c1 (stereo not drawn) [II-69, 5-(5-methyl-2-(5-methyl-6-(8-(2,2,2-trifluoroacetyl)-8-aza-bicyclo[3.2.1]octan-3-yl)pyridin-3-ylamino)pyrimidin-4-ylamino)benzo[d]oxazol-2(3H)-one] | < 500 nM |
| CNC(=O)c1ccc(Nc2ncc(C)c(Nc3ccc4oc(=O)[nH]c4c3)n2)cc1 [Compound I-133, N-Methyl-4-[5-methyl-4-(2-oxo-2,3-dihydro-benzooxazol-5-ylamino)-pyrimidin-2-ylamino]-benzamide] | < 500 nM |
| Cc1cnc(Nc2cnc(N3CC4CC3CN4)c(F)c2)nc1Nc1ccc2oc(=O)[nH]c2c1 (stereo not drawn) [II-51, 5-{2-[6-(2,5-Diaza-bicyclo[2.2.1]hept-2-yl)-5-fluoro-pyridin-3-ylamino]-5-methyl-pyrimidin-4-ylamino}-3H-benzooxazol-2-one] | < 500 nM |
| Cc1cnc(Nc2ccc(C(=O)NC(C)C)cc2)nc1Nc1ccc2oc(=O)[nH]c2c1 [Compound I-139, N-Isopropyl-4-[5-methyl-4-(2-oxo-2,3-dihydro-benzooxazol-5-ylamino)-pyrimidin-2-ylamino]-benzamide] | < 500 nM |
| C=C1C[C@@H](O)CN1c1ccc(Nc2ncc(C)c(Nc3ccc4oc(=O)[nH]c4c3)n2)cn1 [II-126, N2-[2-(4R-hydroxy-2-methylidene-pyrrolidin-1-yl)pyridin-5-yl]-5-methyl-N4-(2-oxo-2,3-dihydro-1,3-benzoxazol-5-yl)-2,4-pyrimidinediamine] | 500 to 5000 nM |
| COc1cc(Nc2ncc(C)c(Nc3ccc4oc(=O)[nH]c4c3)n2)cc(C(F)F)c1 [Compound I-273, 5-(2-(3-(difluoromethyl)-5-methoxyphenylamino)-5-methylpyrimidin-4-ylamino)benzo[d]oxazol-2(3H)-one] | < 500 nM |

same assay, conditions: tested under conditions described in Example 3 (IL-2 stimulated human primary T-cell proliferation); read-out: ability to inhibit JAK3 activity, IC50 range (Table V)

| SMILES | IC50 |
| --- | --- |
| Cc1cnc(Nc2ccc(F)c(OC(C)(C)C(N)=O)c2)nc1Nc1ccc2oc(=O)[nH]c2c1 [Compound I-386, N2-[3-(1-aminocarbonyl-1-methyl)ethoxy-4-fluoro]phenyl-5-methyl-N4-(2-oxo-2,3-dihydro-1,3-benzoxazol-5-yl)-2,4-pyrimidinediamine] | < 500 nM |
| Cc1cnc(Nc2cccc(C#N)c2)nc1Nc1ccc2[nH]c(=O)[nH]c2c1 [Compound I-28, N4-(benzimidazolin-2-on-5-yl)-N2-(3-cyanophenyl)-5-methylpyrimidine-2,4-diamine] | < 500 nM |
| Cc1cnc(Nc2cnc(N3CCN4CCC3CC4)c(F)c2)nc1Nc1ccc2oc(=O)[nH]c2c1 [II-125, N2-[2-(1,4-diazabicylco[3.2.2]nonan-4-yl)-3-fluoropyridin-5-yl]-5-methyl-N4-(2-oxo-2,3-dihydro-1,3-benzoxazol-5-yl)-2,4-pyrimidinediamine] | < 500 nM |
| Cc1cnc(Nc2ccc(NS(C)(=O)=O)cc2)nc1Nc1ccc2c(c1)n(C)c(=O)n2C [Compound I-38, N4-(1,3-dimethylbenzimidazolin-2-on-5-yl)-N2-((4-methylsulfonylamino)phenyl)-5-methylpyrimidine-2,4-diamine] | < 500 nM |
| COc1cc(Nc2ncc(C)c(Nc3ccc4oc(=O)[nH]c4c3)n2)cc(C(F)(F)F)c1 [Compound I-228, 5-(2-(3-deuteratedmethoxy-5-(trifluoromethyl)phenylamino)-5-methylpyrimidin-4-ylamino)benzo[d]oxazol-2(3H)-one] | < 500 nM |
| CNC(=O)COc1cccc(Nc2ncc(C)c(Nc3ccc4oc(=O)[nH]c4c3)n2)c1C [Compound I-325, 5-methyl-N2-(2-methyl-3-methylaminocarbonylmethoxy)phenyl-N4-(2-oxo-2,3-dihydro-1,3-benzoxazol-5-yl)-2,4-pyrimidinediamine] | 500 to 5000 nM |
| Cc1cnc(Nc2ccc(N3CCC(F)(F)CC3)c(F)c2)nc1Nc1ccc2oc(=O)[nH]c2c1 [Compound I-275, N2-[4-(4,4-difluoropiperidinyl)-3-fluoro]phenyl-5-methyl-N4-(2-oxo-2,3-dihydro-1,3-benzoxazol-5-yl)-2,4-pyrimidinediamine] | < 500 nM |
| COc1ccc(Nc2ncc(C)c(Nc3ccc4oc(=O)[nH]c4c3)n2)cc1OCc1cccnc1 [Compound I-299, N2-{4-methoxy-3-[(pyridin-3-yl)methoxy]}phenyl-5-methyl-N4-(2-oxo-2,3-dihydro-1,3-benzoxazol-5-yl)-2,4-pyrimidinediamine] | < 500 nM |
| Cc1cnc(Nc2ccc(F)c(NS(C)(=O)=O)c2)nc1Nc1ccc2oc(=O)n(C)c2c1 [Compound I-88, N2-((4-fluoro-3-methylsulfonylamino)phenyl)-N4-(3-methyl-2-oxo-2,3-dihydrobenzo[d]oxazol-5-yl)-5-methylpyrimidine-2,4-diamine] | < 500 nM |
| Cc1cnc(Nc2ccc3c(c2)OCO3)nc1Nc1ccc2oc(=O)[nH]c2c1 [IV-35, 5-methyl-N2-(3,4-methylenedioxy)phenyl-N4-(2-oxo-2,3-dihydro-1,3-benzoxazol-5-yl)-2,4-pyrimidinediamine] | < 500 nM |
| Cc1cnc(Nc2ccc(F)c(OC(F)F)c2)nc1Nc1ccc2oc(=O)[nH]c2c1 [Compound I-435, N2-(3-difluoromethoxy-4-fluoro)phenyl-5-methyl-N4-(2-oxo-2,3-dihydro-1,3-benzoxazol-5-yl)-2,4-pyrimidinediamine] | < 500 nM |
| Cc1cnc(Nc2cccc(S(C)(=O)=O)c2)nc1Nc1ccc2oc(=O)n(C)c2c1 [Compound I-69, N2-((3-methylsulfonyl)phenyl)-N4-(3-methyl-2-oxo-2,3-dihydrobenzo[d]oxazol-5-yl)-5-methylpyrimidine-2,4-diamine] | < 500 nM |
